Measured values reported in PubChem BioAssay (NCI).
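Compound exposure: 48 hours, 5 concentrations, 96-well plates. TGI: concentration producing complete growth inhibition.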

Columns and labels:
Test in all cases: inhibition of tumour cell growth, NCI panel, 48 h
SNB-19 CNS = tested on: SNB-19 CNS
PC-3 prostate = tested on: PC-3 prostate
KM12 colon = tested on: KM12 colon
SK-MEL-5 melanoma = tested on: SK-MEL-5 melanoma
MOLT-4 leukemia = tested on: MOLT-4 leukemia
HCT-15 colon = tested on: HCT-15 colon
MDA-MB-231 breast = tested on: MDA-MB-231 breast
TK-10 renal = tested on: TK-10 renal
ACHN renal = tested on: ACHN renal
U251 CNS = tested on: U251 CNS

Row | SMILES | TGI (SNB-19 CNS) [µM] | TGI (PC-3 prostate) [µM] | TGI (KM12 colon) [µM] | TGI (SK-MEL-5 melanoma) [µM] | TGI (MOLT-4 leukemia) [µM] | TGI (HCT-15 colon) [µM] | TGI (MDA-MB-231 breast) [µM] | TGI (TK-10 renal) [µM] | TGI (ACHN renal) [µM] | TGI (U251 CNS) [µM]
1 | Nc1nc(Cl)cc(NCC2(CO)CC(c3ccccc3)C2)n1 (stereo not given) | > 100 | > 100 | > 100 | 29.4 | 93.9 | > 100 | > 100 | > 100 | > 100 | > 100
2 | CSC1=N/C(=C\c2ccccc2)C(=O)N1CN1CCOCC1 | > 100 | > 100 | > 100 | > 100 | > 100 | > 100 | > 100 | > 100 | > 100 | > 100
3 | OCCSCc1cc(Cl)cc(Cl)c1O | > 100 | > 100 | > 100 | > 100 | > 100 | > 100 | > 100 | > 100 | > 100 | > 100
4 | CCSC1=C(C#N)C2(CCCCC2)C2=C(CC(C)(C)CC2=O)N1 | 76.2 | > 100 | > 100 | > 100 | > 100 | > 100 | > 100 | > 100 | 74.2 | > 100
5 | C=CCC1(O)C(=O)OC2C(O)COC21O (stereo not given) | > 100 | > 100 | > 100 | > 100 | > 100 | > 100 | > 100 | > 100 | > 100 | > 100
6 | c1ccc(CNCCCNCCCCNCCCNCc2ccccc2)cc1 | 27.4 | 11.2 | 21 | > 56.2 | 2.74 | 33.8 | 22.1 | 18 | 21.4 | 22.5
7 | Cc1cc(O)c2cc3c(O)c(O)ccc3cc2c1 | > 100 | 19.3 | 2.32 | 1.07 | 5.75 | 5.91 | 3.21 | 33.7 | 5.71 | 18.1
8 | COC(=O)c1ccc(-n2c(C)nc(=O)c(-c3ccccc3)c2C)cc1 | > 100 | > 100 | > 100 | > 100 | > 100 | > 100 | > 100 | > 100 | > 100 | > 100
9 | CC(=O)[C@H]1[C@@H](OCc2ccccc2)O[N+]([O-])=C(C)[C@@H]1c1ccccc1 | > 100 | > 100 | > 100 | > 100 | 41.2 | 75 | > 100 | > 100 | 78.4 | > 100
10 | O=C1NC(=O)/C(=C/c2ccc(S(=O)(=O)N/N=C/c3ccccc3)cc2)N1 | > 100 | > 100 | > 100 | > 100 | > 100 | > 100 | > 100 | > 100 | > 100 | > 100
11 | CC(=O)c1c2c(cc3c1CC1(C3)Cc3ccc4c(c3C1=O)CCC4)CCC2 (stereo not given) | > 100 | > 100 | > 100 | 38.5 | > 100 | > 100 | > 100 | > 100 | > 100 | > 100
12 | O=S(=O)(c1ccccc1)[C@@H]1[C@H]2C=C[C@](CS)(O2)[C@H]1S(=O)(=O)c1ccccc1 | > 100 | > 100 | > 100 | > 100 | 43.6 | 28.4 | > 100 | > 100 | > 100 | > 100
13 | O=C1C=Cc2c1csc2Br | > 100 | > 100 | > 100 | > 100 | 54.7 | > 100 | > 100 | > 100 | 86.5 | > 100
14 | COC(=O)CCN1CCN(CCO)CC1C (stereo not given) | > 10 | > 10 | > 10 | > 10 | > 10 | > 10 | > 10 | > 10 | > 10 | > 10
15 | COc1cc(CCC(=O)O)c2cc3ccccc3cc2c1O | 60.5 | 47.6 | 44.1 | 28.4 | 21.9 | 43.9 | 41.4 | 75.1 | 32.2 | 29.9
16 | Nc1cccc(/C=C/CN2CCN(CCOC(c3ccccc3)c3ccccc3)CC2)c1 | 30.7 | 30 | 25.4 | 26.8 | 19.2 | 26.1 | 30.3 | 29.6 | 32.2 | 30.5
17 | Cc1ccc(N(C)S(=O)(=O)c2ccccc2)cc1 | > 100 | > 100 | > 100 | > 100 | > 100 | > 100 | > 100 | > 100 | > 100 | > 100
